Results on three compounds are retold here after US20170198318A1, “METHOD OF MANUFACTURING METHOXY-ISOFLAVONES BY BIOTRANSFORMATION AND USE THEREOF” (NATIONAL UNIVERSITY OF TAINAN, priority 2016, published 2017).

For series [1], the system named is melanogenesis. To be noted: Arch. Pharm. Res. 2010; cited from earlier work.
Series [2] concerns Mouse B16 melanoma cells (4A5). The series can be described thus: Cell viability (MTT method) in B16 cells. It is filed as cell-based. The note with it: under a concentration of 25 μM, with 400 μM IBMX, 2 days. The method, then:
The ranges of non-toxic concentrations of the compounds toward the B16 cells was first determined with the 3-(4,5-dimethylthiazol-2-yl)-2,5-diphenyltetrazolium bromide (MTT) method. Mouse B16 melanoma cells (4A5) was purchased from the Bioresources Collection and Research Center (BCRC, Food Industry Research and Development Institute, Hsinchu, Taiwan). Determinations of cell viability and melanin content were performed as previously reported [Appl. Microbiol. Biotechnol. 2007; 73:1169-1172] and described briefly below. Dulbecco's modified Eagle's medium (DMEM) containing 10% (v/v) fetal bovine serum was used to cultivate mouse B16 cells, which were incubated at 37° C. in a humidified, CO2-controlled (5%) incubator. After 1 day of incubation, the cells were treated with tested drugs in the presence of a melanogenesis stimulation agent (400 μM of 3-isobutyl-1-methylxanthine (IBMX)) for another 2 days. Then, the drug-treated cells were harvested and the cell viability and melanin content were measured according to the previous study [Curr. Pharma. Biotechnol. 2015; 16:1085-1093]. […]
The X axis includes different treatment conditions, and the Y axis of the results represents cell survival rate or relative melanin content. Both of the cell survival rate and the relative melanin content are expressed as percentage of control (% of control). […]

For series [3], the system named is Mouse B16 melanoma cells (4A5). The series can be described thus: Melanin content / inhibition of melanogenesis in IBMX-stimulated B16 cells. It is filed as cell-based. The method, then:
The ranges of non-toxic concentrations of the compounds toward the B16 cells was first determined with the 3-(4,5-dimethylthiazol-2-yl)-2,5-diphenyltetrazolium bromide (MTT) method. Mouse B16 melanoma cells (4A5) was purchased from the Bioresources Collection and Research Center (BCRC, Food Industry Research and Development Institute, Hsinchu, Taiwan). Determinations of cell viability and melanin content were performed as previously reported [Appl. Microbiol. Biotechnol. 2007; 73:1169-1172] and described briefly below. Dulbecco's modified Eagle's medium (DMEM) containing 10% (v/v) fetal bovine serum was used to cultivate mouse B16 cells, which were incubated at 37° C. in a humidified, CO2-controlled (5%) incubator. After 1 day of incubation, the cells were treated with tested drugs in the presence of a melanogenesis stimulation agent (400 μM of 3-isobutyl-1-methylxanthine (IBMX)) for another 2 days. Then, the drug-treated cells were harvested and the cell viability and melanin content were measured according to the previous study [Curr. Pharma. Biotechnol. 2015; 16:1085-1093]. In this experiment, cells only treated with IBXM is used as a negative control and cells treated with 20 μM danazol is used as a positive control.
The X axis includes different treatment conditions, and the Y axis of the results represents cell survival rate or relative melanin content. Both of the cell survival rate and the relative melanin content are expressed as percentage of control (% of control). […] Accordingly, the 25 μM was used as the maximum concentration in the determination of the inhibition of melanogenesis.
Pharm. Res. 2010; 33:1959-19].

The mark [4] stands for this setting: non-toxic concentrations, 400 μM IBMX, 2 days.

`C#C[C@]1(O)CC[C@H]2[C@@H]3CCC4=Cc5oncc5C[C@]4(C)[C@H]3CC[C@@]21C` [danazol]: the “melanogenesis inhibition (previously identified)” value in series [1] is reported as “potent melanogenesis inhibitor”.
With `COc1ccc2c(=O)c(-c3ccc(O)cc3)coc2c1O` [compound (2), 8,4′-dihydroxy-7-methoxy-isoflavone], in series [2], the “cytotoxicity (cell survival rate)” value is “did not exhibit cytotoxicity”. Further, the inhibition of melanogenesis result in series [3] (setting [4]) is “dose-dependently inhibited melanogenesis”.
`COc1c(O)ccc2c(=O)c(-c3ccc(O)cc3)coc12` [compound (1), 7,4′-dihydroxy-8-methoxy-isoflavone]: the “cytotoxicity (cell survival rate)” value in series [2] was “did not exhibit cytotoxicity”. Moreover, the inhibition of melanogenesis entry in series [3] (6.25 μM and 25 μM, compared with the control group) is “show inhibition of melanogenesis”; in series [3] (setting [4]), “dose-dependently inhibited melanogenesis”; in series [3] (non-toxic concentrations, 400 μM IBMX, 2 days, listed as 7,4′-dihydroxy-8-methoxy-isoflavone), “inhibitory effect on melanogenesis”. In series [3] (Mus musculus, 48 h, 25 μM, 400 μM IBMX, 2 days, read-out: melanin content (% of control)), the activity at 25 µM is 63.5%. Also, the “inhibition of melanogenesis compared with positive control danazol” value in series [3] (danazol 20 μM) is reported as “greater than that produced by danazol”.
